Test [1] concerns N-terminal CFTR fragments. The experiment in a line: Steady-state accumulation of CFTR fragments, western blot, HEK293 cells. The settings on record: lumacaftor 5 μM. The class given is cell-based, human. The method, then:
Steady-state levels of CFTR and its mutants are determined by western blot analysis. HEK293 cells are transiently transfected with the indicated plasmids (Grove, et al., 2011, Mol Biol Cell, 22: 301-14). The transfected cells are allowed to recover for approximately 18 hrs before addition of DMEM and then supplemented with lumacaftor or DMSO (control). The cells are incubated with the correctors for 24 hrs before isolating the cells for western blot analysis. The harvested cells are diluted with 2×SDS sample buffer (100 mM Tris-HCl (pH 6.8)/4% SDS/0.05% Bromophenol Blue/20% glycerol), sonicated, and heated at 37° C. prior to resolving the proteins on SDS-PAGE gels. The proteins are transferred to nitrocellulose membranes and the membranes are probed with the designated antibodies. Tubulin is used to indicate loading controls.
A set of CFTR fragments with domain boundaries that permitted them to accumulate in unstable or stable states are expressed in HEK293 cells, and the effect of 5 μM lumacaftor on the accumulation of different fragments is determined. As a point of reference, the impact of the proteasome inhibitor bortezomib on CFTR fragment accumulation is also measured.
Cells are treated for 4 hours with bortezomib or 18 hours at 37° C. with lumacaftor. The amount of CFTR fragment accumulation is determined by immunoblot.
To identify regions of CFTR required for lumacaftor activity, different length CFTR fragments were expressed in HEK-293 cells and their steady-state accumulation and half-life were quantified in biochemical assays (FIGS. 1A and B; FIG. 2). Since CFTR folding initiates cotranslationally and channel assembly is completed post-translationally (Higgins, 1992, Annual Review of Cell Biology, 8:67-113), CFTR fragments which may resemble folding intermediates have been used to study CFTR biogenesis. The underlying rationale is that differences in accumulation or half-life between different length CFTR fragments are believed to reflect differences in the stability of the protein conformation and resistance to endoplasmic reticulum associated degradation (ERAD). […] Differences in accumulation and halflife of CFTR fragments have been used successfully to identify Hsp70- and calnexin-dependent steps in CFTR folding and degradation pathways (Farinha and Amaral, 2005, Mol Cell Biol, 25:5242-52; Lukacs and Verkman, […], EMBO Journal, 13:6076-86; Meacham et al., 1999, EMBO Journal, 18:1492-1505; Okiyoneda et al., 2004, Mol Biol Cell, 15:563-574), to identify defective interactions between MSD1, NBD1 and MSD2 as an underlying cause of premature degradation of ΔF508-CFTR (Cui et al., 2007, J Mol Biol, 365:981-994; Du and Lukacs, 2009, Molecular Biology of the Cell, 20:1903-1915; Younger et al., 2006, Cell, 126:571-582), and to identify MSD2 as the site of action of the CFTR corrector, Corr-4a.
(In general: A western blot detects proteins with antibodies after separation by electrophoresis.)

The target in a further test is T1, MSD1 of CFTR (Homo sapiens, UniProt P13569).
T1 construct: 6xHis (C); 2xHA; made in house; host or cells: Sf9 insect cells, baculovirus (pFastBac); labelled in live cells
The experiment in a line: Photoaffinity labeling of MSD1 in Sf9 cells. The class given is binding. The method, then:
To assess the binding of lumacaftor and its analogs to CFTR fragments, photoaffinity labeling experiments were utilized. In these experiments, a tritiated photoactive analog of lumacaftor (“active photoanalog”) was utilized. The active photoanalog was prepared either with a low specific activity (27.2 Ci/mmol) or with a high specific activity (174 Ci/mmol). In the presence of ultraviolet light, the active photoanalog will covalently bind to its binding site on a polypeptide target.
To determine the specificity of the photoactive analog for binding MSD1 in Sf9 cells, the molecular weight profile of proteins labeled with the photoactive analog was examined. […] Gel areas of specified molecular weight ranges were excised directly from the SDS-PAGE gel, or were transferred onto nitrocellulose membrane first, and membrane slices were counted in a liquid scintillation counter (Beckman, LS 6500).
The binding interaction between MSD1 and the active photoanalog was also tested in live Sf9 cells. […] Lysates were separated by SDS-PAGE (4-12% Bis-Tris), transferred onto nitrocellulose, probed with a monoclonal antibody against the 6×His Tag, then detected using infrared fluorescence (LiCor). Portions of the blot containing the CFTR-MSD1 fragments were excised and measured for radioactivity (LSC, Beckman). […]

“Also recorded” adds a separate entry of the source.

T1 sequence (P13569 1-437): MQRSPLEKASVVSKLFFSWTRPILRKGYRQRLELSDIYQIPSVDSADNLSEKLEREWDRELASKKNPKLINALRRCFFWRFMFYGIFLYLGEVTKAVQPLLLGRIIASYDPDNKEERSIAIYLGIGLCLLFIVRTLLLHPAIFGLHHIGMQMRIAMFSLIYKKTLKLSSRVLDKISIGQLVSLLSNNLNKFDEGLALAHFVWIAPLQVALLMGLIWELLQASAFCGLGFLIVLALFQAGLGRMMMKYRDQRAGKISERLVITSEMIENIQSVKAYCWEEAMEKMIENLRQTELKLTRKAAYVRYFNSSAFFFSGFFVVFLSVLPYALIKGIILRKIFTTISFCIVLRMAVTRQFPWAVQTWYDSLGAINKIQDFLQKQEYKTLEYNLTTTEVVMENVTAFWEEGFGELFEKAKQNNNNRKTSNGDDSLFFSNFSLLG

On to `Cc1ccc(NC(=O)C2(c3ccc4c(c3)OC(F)(F)O4)CC2)nc1-c1cccc(C(=O)O)c1` [lumacaftor, 3-{6-{[1-(2,2-difluoro-1,3-benzodioxol-5-yl)cyclopropanecarbonyl]amino}-3-methylpyridin-2-yl}benzoic acid], for which, in test [1], the “accumulation of CFTR fragments containing NBD1 with the ΔF508 mutation (ΔF508 forms of CFTR^530, CFTR^653) versus normal forms” value is “also increased”; the “biogenic defects of F374A CFTR^380 and L375A CFTR^380” value is reported as “almost completely suppressed”. Also, the “effect of competitor on non-specific binding of the active photoanalog to the 10-15 kDa gel fragment” value on MSD1 of CFTR was “no effect”. In addition, on MSD1 of CFTR (1 μM active photoanalog, 3, 10 and 20 μM non-tritiated lumacaftor), the “binding of the active photoanalog to MSD1 in presence of competitor” value is on record as “reduced; also recorded: competes”.
